# Experimental data: ChEMBL document CHEMBL1926587, “Molecular insights into human monoamine oxidase (MAO) inhibition by 1,4-naphthoquinone: evidences for menadione (vitamin K3) acting as a competitive and reversible inhibitor of MAO” (Bioorg Med Chem, 2011)
# Calls of active or inactive are those of the source. No cut-off for these calls is given here.
# Legend:
# [1] = target: T1, Amine oxidase [flavin-containing] A (Homo sapiens, UniProt P21397); assay: Competitive inhibition of human recombinant MAO-A expressed in baculovirus infected insect cells assessed as increase in Km at 5 uM by Lineweaver-Burk plot analysis
# T1 sequence (P21397 whole entry): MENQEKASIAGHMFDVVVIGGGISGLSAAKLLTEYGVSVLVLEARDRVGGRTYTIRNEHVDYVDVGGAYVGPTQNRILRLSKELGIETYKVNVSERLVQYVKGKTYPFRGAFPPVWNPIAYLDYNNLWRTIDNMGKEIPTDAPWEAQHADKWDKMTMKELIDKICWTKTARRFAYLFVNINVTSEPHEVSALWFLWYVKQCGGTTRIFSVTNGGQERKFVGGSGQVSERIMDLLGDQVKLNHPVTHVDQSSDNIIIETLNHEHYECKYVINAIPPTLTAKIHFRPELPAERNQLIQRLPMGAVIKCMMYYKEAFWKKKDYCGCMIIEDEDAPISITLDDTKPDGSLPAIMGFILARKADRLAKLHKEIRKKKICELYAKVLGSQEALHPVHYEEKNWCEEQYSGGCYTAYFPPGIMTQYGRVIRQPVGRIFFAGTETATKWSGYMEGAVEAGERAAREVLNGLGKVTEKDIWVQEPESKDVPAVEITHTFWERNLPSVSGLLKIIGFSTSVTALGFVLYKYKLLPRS
# Homo sapiens = species: Homo sapiens; assay: Selectivity ratio of Ki for human recombinant MAO-A to Ki for human recombinant MAO-B
# Armoracia rusticana = assay: Inhibition of horseradish peroxidase at 100 uM after 45 mins by amplex red assay in the presence of hydrogen peroxide
# [2] = target: T2, Amine oxidase [flavin-containing] B (Homo sapiens, UniProt P27338); assay: Competitive inhibition of human recombinant MAO-B expressed in baculovirus infected insect cells using benzylamine as substrate by Lineweaver-Burk plot analysis
# T2 sequence (P27338 whole entry): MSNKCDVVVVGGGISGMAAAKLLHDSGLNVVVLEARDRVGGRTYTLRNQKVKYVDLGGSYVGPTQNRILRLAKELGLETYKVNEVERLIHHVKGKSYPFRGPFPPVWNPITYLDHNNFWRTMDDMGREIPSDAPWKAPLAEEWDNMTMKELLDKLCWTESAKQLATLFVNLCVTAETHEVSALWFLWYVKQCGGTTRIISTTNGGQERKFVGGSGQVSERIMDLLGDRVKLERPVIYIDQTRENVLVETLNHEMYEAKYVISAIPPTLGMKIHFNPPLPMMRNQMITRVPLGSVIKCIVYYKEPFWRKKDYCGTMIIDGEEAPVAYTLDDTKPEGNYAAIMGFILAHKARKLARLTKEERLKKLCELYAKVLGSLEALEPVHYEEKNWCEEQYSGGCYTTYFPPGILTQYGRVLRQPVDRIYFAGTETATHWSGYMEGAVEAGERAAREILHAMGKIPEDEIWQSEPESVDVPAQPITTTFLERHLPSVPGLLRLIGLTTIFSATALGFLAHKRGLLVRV
# [3] = target: T1, Amine oxidase [flavin-containing] A; assay: Reversible inhibition of human recombinant MAO-A expressed in baculovirus infected insect cells assessed as decrease in Km at 5 uM preincubated for 20 mins measured 3 hrs post dialysis by Lineweaver-Burk plot analysis
# [4] = target: T1, Amine oxidase [flavin-containing] A; assay: Competitive inhibition of human recombinant MAO-A expressed in baculovirus infected insect cells using p-tyramine as substrate by Lineweaver-Burk plot analysis
# [5] = target: T2, Amine oxidase [flavin-containing] B; assay: Competitive inhibition of human recombinant MAO-B expressed in baculovirus infected insect cells assessed as increase in Km at 5 uM by Lineweaver-Burk plot analysis
# [6] = target: T2, Amine oxidase [flavin-containing] B; assay: Reversible inhibition of human recombinant MAO-B expressed in baculovirus infected insect cells assessed as decrease in Km at 5 uM preincubated for 20 mins measured 3 hrs post dialysis by Lineweaver-Burk plot analysis
# [7] = target: T2, Amine oxidase [flavin-containing] B; assay: Competitive inhibition of human recombinant MAO-B expressed in baculovirus infected insect cells assessed as reduction in fluorescence at 10 to 12 uM by spectrofluorimetry relative to control; design: scale not given: the % may be the effect or the level left
# [8] = target: T1, Amine oxidase [flavin-containing] A; assay: Noncompetitive inhibition of human recombinant MAO-A expressed in baculovirus infected insect cells using p-tyramine as substrate by Lineweaver-Burk plot analysis
# [9] = target: T1, Amine oxidase [flavin-containing] A; assay: Reversible inhibition of human recombinant MAO-A expressed in baculovirus infected insect cells assessed as increase in Vmax at 5 uM preincubated for 20 mins measured 3 hrs post dialysis by Lineweaver-Burk plot analysis
# [10] = target: T1, Amine oxidase [flavin-containing] A; assay: Noncompetitive inhibition of human recombinant MAO-A expressed in baculovirus infected insect cells assessed as reduction in Vmax at 5 uM by Lineweaver-Burk plot analysis
# [11] = target: T2, Amine oxidase [flavin-containing] B; assay: Competitive inhibition of human recombinant MAO-B expressed in baculovirus infected insect cells assessed as reduction in fluorescence at 20 to 25 uM by spectrofluorimetry relative to control; design: scale not given: the % may be the effect or the level left
# Rattus norvegicus = species: Rattus norvegicus; assay: Selectivity ratio of Ki for rat MAO-A to Ki for rat MAO-B
# [12] = target: T1, Amine oxidase [flavin-containing] A; assay: Competitive inhibition of human MAO-A
# [13] = target: T2, Amine oxidase [flavin-containing] B; assay: Competitive inhibition of human MAO-B
Compound,Ratio Ki (Homo sapiens),inhibition (Armoracia rusticana),Ki [2] [nM],inhibition (INH) [5],inhibition (INH) [6],Ratio Ki (Rattus norvegicus),other results
CC1=CC(=O)c2ccccc2C1=O [MENADIONE],60,inactive,400,Active,Active,,inhibition (INH) [1]: Active; inhibition (INH) [3]: Active; Ki [4]: 26 µM; Activity [7]: 50%
O=C1C=CC(=O)c2ccccc21 [NAPHTHOQUINONE],,inactive,1500,Active,Active,,Ki [8]: 7.7 µM; inhibition (INH) [9]: Active; inhibition (INH) [10]: Active; Activity [11]: 50%
C#CCN(C)[C@H](C)Cc1ccccc1,250,,,,,250,
C#CCN[C@@H]1CCc2ccccc21,50,,,,,93,
CC1=C(C)C(=O)c2cc(C)ccc2C1=O,,,,,,,Ki [12]: 6 µM; Ki [13]: 3 µM
